Like-named read-outs stand apart in the source and are kept apart here. Ends that are not written are not given here.
How the values were obtained:
[1] = molecular target: T1, GalNAc-T2 lectin domain (T2ld) (Homo sapiens, UniProt Q10471); assay: Direct binding ELISA to GalNAc-MUC1 glycopeptide, competitive inhibition, T2ld
T1 construct: made in house; host or cells: High Five insect cells (baculovirus, pAcGP67-A)
T1 sequence (Q10471 408-571): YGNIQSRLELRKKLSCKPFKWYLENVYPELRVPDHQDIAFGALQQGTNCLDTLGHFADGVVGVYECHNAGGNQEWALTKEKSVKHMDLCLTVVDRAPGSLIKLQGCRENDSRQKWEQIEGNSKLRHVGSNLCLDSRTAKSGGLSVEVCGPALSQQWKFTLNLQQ
Experimental: (§1) Protein biotinylation was made as previously reported^62. The pH of 1 ml purified protein (0.3 mg/ml) in PBS was adjusted to pH 9 with 1 M NaOH and 40 μl N-hydroxy-succinimidobiotin (Sigma) dissolved in DMF (10 mg/ml) was added. The solution was mixed end-over-end for 2 hours at room temperature, and dialyzed three times against PBS and an equal volume of glycerol was added. The biotinylated proteins were stored at −20° C. in 50% glycerol until use.
(§2) Direct binding ELISA assay was developed as follows: Polystyrene microtiter plates (Maxisorb, Nunc, Denmark) were coated with peptides or enzymatically glycosylated glycopeptides in PBS overnight at 4° C. Plates were washed and blocked with 0.1% Tween20 and 0.2% BSA in PBS for 1 h at room temperature, followed by incubation with biotinylated proteins in PBS with 0.05% Tween20 for 2 h at room temperature. After four washes with PBS, plates were incubated with 1:2,000 dilution streptavidin-HRP (Sigma) in PBS for 30 min at room temperature and washed four times with PBS. Development was performed with 0.5 mg/ml o-phenylenediamine and 0.02% H2O2 at room temperature for 15 min, and reaction stopped by adding 100 μl/well of 0.5 N H2SO4. Competitive inhibition assays were done at end-point titers of GalNAc-transferase proteins with one hour preincubations with inhibitor.
(§3) In binding studies using lectins without biotinylation antibodies to the HIS-tag and the T7-tag, or in some experiments antibodies raised to GalNAc-T2 and -T4 enzymes were used to detect binding.

[2] = molecular target: T2, GalNAc-T4 lectin domain (T4ld) (Homo sapiens, UniProt Q8N4A0); assay: Direct binding ELISA to GalNAc-MUC1 glycopeptide, competitive inhibition, T4ld
T2 construct: made in house; host or cells: High Five insect cells (baculovirus, pAcGP67-A)
Experimental: as §1, §2, §3

[3] = molecular target: Helix Pomatia lectin (HPA) (Helix pomatia, UniProt Q2F1K8); assay: Direct binding ELISA, competitive inhibition, Helix Pomatia lectin control; conditions: read-out: Concentration required for 50% inhibition (IC50), HPA; control plant lectin
Excerpt: Glycopeptides were purified by C-18 reverse phase HPLC. Peptides were custom synthesized by Neosystems (Strasbourg). Biotinylated Helix Pomatia lectin (HPA) was from KemEnTec (Denmark). Anti-MUC1 HMFG2 monoclonal antibody was a generous gift from Joyce Taylor-Papadimitriou. Anti-MUC1 SE5 monoclonal antibody was developed by immunizing Balb/c mice with 60-mer MUC1 tandem repeat peptide glycosylated with 5 moles GalNAc per repeat. Monoclonal antibodies to the lectin domains of human GalNAc-T2 and -T4 were developed as previously described^8, 63.
as §2
Inhibition experiments were used to further define the binding specificity of GalNAc-T2 and -T4 secreted soluble enzymes as well as lectin domains compared to Helix Pomatia lectin (Table VII).

[4] = molecular target: T3, secreted soluble GalNAc-T4 (sT4) (Homo sapiens, UniProt Q8N4A0); assay: Direct binding ELISA to GalNAc-MUC1 glycopeptide, competitive inhibition, sT4; conditions: binding to GalNAc-MUC1 glycopeptide
T3 construct: using the GalNAc-T4-sol construct that encodes residues 32-578 inserted into pT7T3U19; 6xHis (N); thrombin cleavage site (N); T7 tag (N); made in house; host or cells: High Five insect cells (baculovirus)
Experimental: as §1, §2, §3

[5] = molecular target: T4, secreted soluble GalNAc-T2 (sT2) (Homo sapiens, UniProt Q10471); assay: Direct binding ELISA to GalNAc-MUC1 glycopeptide, competitive inhibition, sT2; conditions: read-out: Concentration required for 50% inhibition (IC50), sT2
T4 construct: HIS-tagged secreted human GalNAc-T2 and -T4 were prepared from pAC-GP67-T2-sol and pAC-GP67-T4-sol cDNA; 6xHis (N); thrombin cleavage site (N); T7 tag (N); made in house; host or cells: High Five insect cells (baculovirus)
Experimental: as §1, §2, §3

[6] = molecular target: T5, GalNAc-T2 (Homo sapiens, UniProt Q10471); assay: GalNAc-T2 transferase activities with UDP-GalNAc or UDP-Gal donor (Muc2 acceptor, peptide panel); assay type: biochemical; conditions: peptide as acceptor substrate
T5 construct: Soluble, secreted expression constructs of human GalNAc-transferases GalNAc-T1, -T2, -T3, -T4, -T6, -T7, and -T11; made in house; host or cells: insect cells (baculovirus)
Experimental: (§4) Standard reaction mixtures (50 μl final volume) contained 25 mM cocadylate (pH 7.4), 10 mM MnCl2, 0.25% Triton X-100, 200 μM UDP-[^14C]-GalNAc (2,000 cpm/nmol) (Amersham), 200-500 μM acceptor peptides. Products were quantified by scintillation counting after chromatography on Dowex-1, octadecyl silica cartridges (Bakerbond), or HPLC (PC3.2/3 or mRPC C2/C18 SC2.1/10 Pharmacia, Smart System). […] Glycopeptides were purified on Supelclean LC-18 columns (1 ml, Supelco), and the number of GalNAc residues incorporated evaluated by MALDI-TOF mass spectrometry. The enzyme sources used were semipurified as previously described by successive sequential ion-exchange chromatographies on Amberlite (IRA95, Sigma) or DEAE Sephacel (Pharmacia), S-Sepharose Fast Flow (Pharmacia), and Mini-S™ (PC 3.2/3, Pharmacia) using the Smart System (Pharmacia) (28). Secreted GalNAc-T4 was obtained from a stably transfected CHO line (CHO/GalNA-T4/21A) (8) grown in roller bottles in HAMS F12 supplemented with 10% Fetal Bovine Serum. The experiments illustrated in FIG. 1 was performed with recombinant secreted GalNAc-T4 obtained from a stably transfected CHO line (8). Experiments illustrated in FIGS. 2 and 3 were performed with secreted GalNAc-T4 expressed in High Five cells grown in serum-free medium (8). Structural analysis of glycopeptides were performed by a combination of PFPA (pentafluoropropionic acid) hydrolysis and MALDI-TOF mass spectrometry as previously described (40). Secreted GalNAc-T7 was obtained from infected High Five™ cells grown in serum-free medium (Invitrogen) in upright roller bottles shaken 140 rpm in waterbaths at 27° C. GalNAc-T7 was not purified by Mini-S as the yields from cationic chromatography were low due to its low pI (6.4).
(§5) Galactosyl transferring activities of GalNAc-T1, -T2, and -T3, were assayed with a panel of acceptor peptides in standard reaction mixtures containing 100 μM UDP-Gal instead of UDP-GalNAc. […] Further, analysis was performed with 10 mM α-D-GalNAc-1-benzyl, αGlcNAc-benzyl, and fully occupied GalNAc-glycopeptide, GalNAC6TAP25, at 5 mM.

[7] = molecular target: T6, GalNAc-T3 (Homo sapiens, UniProt Q14435); assay: GalNAc-T3 transferase activities with UDP-GalNAc or UDP-Gal donor (EA2 acceptor, peptide panel); assay type: biochemical; conditions: peptide as acceptor substrate
T6 construct: Soluble, secreted expression constructs of human GalNAc-transferases GalNAc-T1, -T2, -T3, -T4, -T6, -T7, and -T11; made in house; host or cells: insect cells (baculovirus)
T6 sequence (Q14435 38-633 limits assumed): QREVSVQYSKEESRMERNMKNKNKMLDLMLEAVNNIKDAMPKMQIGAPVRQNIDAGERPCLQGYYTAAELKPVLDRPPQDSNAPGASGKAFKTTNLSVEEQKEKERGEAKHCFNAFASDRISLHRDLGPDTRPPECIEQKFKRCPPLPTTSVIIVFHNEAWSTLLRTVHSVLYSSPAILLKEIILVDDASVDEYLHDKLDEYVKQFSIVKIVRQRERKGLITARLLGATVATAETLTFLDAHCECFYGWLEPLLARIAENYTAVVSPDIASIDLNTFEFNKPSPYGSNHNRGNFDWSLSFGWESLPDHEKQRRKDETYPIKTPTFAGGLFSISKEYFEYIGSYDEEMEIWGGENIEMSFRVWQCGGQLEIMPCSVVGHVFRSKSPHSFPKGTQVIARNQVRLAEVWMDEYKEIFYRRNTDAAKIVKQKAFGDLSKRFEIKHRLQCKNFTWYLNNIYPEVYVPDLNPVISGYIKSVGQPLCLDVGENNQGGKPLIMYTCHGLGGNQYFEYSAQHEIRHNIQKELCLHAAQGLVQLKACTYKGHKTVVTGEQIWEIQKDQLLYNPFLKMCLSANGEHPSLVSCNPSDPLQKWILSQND
Experimental: as §4, §5

[8] = read-out: Concentration required for 50% inhibition (IC50), T2ld
[9] = read-out: Concentration required for 50% inhibition (IC50), sT4

**Q.** `O=c1ccn([C@@H]2O[C@H](COP(=O)(O)OP(=O)(O)O)[C@@H](O)[C@H]2O)c(=O)[nH]1` [UDP] was tested. Which IC50 [1, 8] did it give?
**A.** > 100 mM

**Q.** What about the IC50 ([2]; read-out: Concentration required for 50% inhibition (IC50), T4ld) of the same compound?
**A.** > 100 mM

**Q.** What about the IC50 [3] of the same compound?
**A.** > 100 mM

**Q.** What about the IC50 [4, 9] of the same compound?
**A.** > 100 mM

**Q.** And the IC50 [5]?
**A.** > 100 mM

**Q.** What does the source list for `CC(=O)N[C@H]1[C@H](Oc2ccccc2[N+](=O)[O-])O[C@H](CO)[C@H](O)[C@@H]1O` [oNPβGalNAc]?
**A.** IC50 [1]: > 12 mM; IC50 [2]: 8 mM; IC50 [3]: > 20 mM; IC50 [4]: 1 mM

**Q.** Which IC50 [3] does the source give for `CC(=O)N[C@H]1[C@H](Oc2ccc([N+](=O)[O-])cc2)O[C@H](CO)[C@H](O)[C@@H]1O` [pNPβGalNAc] here?
**A.** > 20 mM

**Q.** What about the IC50 [4, 9] of the same compound?
**A.** 0.8 mM

**Q.** For “EA2: acceptor peptide PTTDSTTPAPTTK derived from rat submandibular gland mucin”, which “GalNAc-T2 activity with UDP-Gal by acceptor peptide” value [6] is on record?
**A.** 1.5 nmol/min/mL

**Q.** And the “GalNAc-T3 activity with UDP-Gal by acceptor peptide” value [7]?
**A.** 6.8 nmol/min/mL

**Q.** Which results are given for “Muc2: acceptor peptide PTTTPISTTTMVTPTPTPTC derived from human intestinal mucin MUC2”?
**A.** GalNAc-T2 activity with UDP-Gal by acceptor peptide [6]: 90 nmol/min/mL; GalNAc-T3 activity with UDP-Gal by acceptor peptide [7]: 0 nmol/min/mL

**Q.** Which “GalNAc-T2 activity with UDP-Gal by acceptor peptide” value [6] does the source give for “Muc7: acceptor peptide Ac-CPPTPSATTPAPPSSSAPPETTAA derived from human salivary gland mucin MUC7” here?
**A.** 13 nmol/min/mL

**Q.** What about the “GalNAc-T3 activity with UDP-Gal by acceptor peptide” value [7] of the same compound?
**A.** 0.1 nmol/min/mL

**Q.** “uridine diphospho-N-acetylgalactosamine [UDPαGalNAc]” was tested. Which IC50 [1, 8] did it give?
**A.** > 100 mM

**Q.** What about the IC50 [4, 9] of the same compound?
**A.** 30 mM

**Q.** What about the IC50 [5] of the same compound?
**A.** 65 mM

Reference: patent US7338932B2, “Methods of modulating functions of polypeptide GalNAc-transferases and of screening test substances to find agents herefor, pharmaceutical compositions comprising such agents and the use of such agents for preparing medicaments” (Glycozym APS, priority 2000, dated 2008)
